Data reported in patent publication US11986487B2, “Mixture of HMOS for treating wheat sensitivity” (GLYCOM A/S, priority 2017, dated 2024).

System: human LS174T cell culture model of goblet cells
Assay: Goblet cell gene expression by quantitative RT-PCR
Type: cell-based
Settings: 5 mg HMO/ml, compared to control cultures
Description: 2′-FL and LNnT are tested with respect to their ability to induce MUC2, TFF3, EIMβ, CHST5, and GAL3ST2 expression in the human LS174T cell culture model of goblet cells. The human LS174T cell line is obtained from the American Type Culture Collection (ATCC). LS174T cells are maintained in minimum essential medium (MEM) supplemented according to instructions at 37° C. in air containing 5% of CO2. 2′-FL and LNnT are dissolved in cell culture grade water to the required concentration. The LS174T cells are treated with the HMO solution containing 0 or 5 mg HMO/ml. The LS174T cells are collected and suspended in Trizol reagent and total RNA is isolated using an RNA analysis kit (Qiagen) according to the manufacturer's instructions and the RNA isolates are quantified using Nanodrop analysis (Thermo Fisher Scientific). RNA isolates are reverse transcribed using a high capacity cDNA Reverse Transcription Kit (Applied Biosystems) to create cDNA, which is then used to assess gene expression via quantitative RT-PCR. For the quantitative RT-PCR, specific TaqMAN gene expression assays are obtained from Applied Biosystems, which include expression assays for MUC2, TFF3, CHST5 and GAL3ST2. Quantitative real-time PCR is performed using TaqMAN PCR Master Mix (Applied Biosystems). Reactions are run in duplicates in a 384-well plate using an Applied Biosystems 7900HT Fast Real-Time PCR System. The results are analysed using SDS 2.3 software and calculated by delta Ct method. All samples are normalized to Gus-β expression and fold induction is calculated over untreated controls. Gene expression is expressed as fold increase compared to HMO-free control cells. The experiment is repeated three times.

Compound	expression of CHST5	expression of GAL3ST2	expression of the MUC2 gene	expression of the TFF3 gene
2′-fucosyllactose [2′-FL]	minimal induction	lack of induction	increases	increases
CC(=O)N[C@H]1[C@H](O[C@H]2[C@@H](O)[C@@H](CO)O[C@@H](O[C@H]3[C@H](O)[C@@H](O)C(O)O[C@@H]3CO)[C@@H]2O)O[C@H](CO)[C@@H](O[C@@H]2O[C@H](CO)[C@H](O)[C@H](O)[C@H]2O)[C@@H]1O (mixture of isomers) [LNnT, lacto-N-neotetraose]	minimal induction	lack of induction	increases	increases
